Measured values as given in patent publication US6555501B1, “4-trifluoromethyl-3-oxazolylpyridines, processes for their preparation, compositions comprising them and their use as pesticides” (Hoechst Schering AgrEvo GmbH, priority 1998, dated 2003).

Legend:
Type in all cases: in vivo
[1] = system: black bean aphids (Aphis fabae); experiment: Black bean aphid dip test on broad bean (plants and aphids dipped in the preparation); details: 300 ppm (content of active compound), Vicia faba plants and aphids dipped 5 seconds, after 3 and 6 days storage, read-out: mortality among the aphids
Protocol: Germinated broad bean seeds (Vicia faba) with radicles were transferred into brown glass bottles filled with tap water and subsequently populated with approximately 100 black bean aphids (Aphis fabae). Plants and aphids were then dipped for 5 seconds into an aqueous solution of the formulated preparation to be examined. After the solution had dripped off, plants and animals were kept in a climatized chamber (16 hours of light/day, 25° C., 40-60% relative atmospheric humidity). After 3 and 6 days storage, the effect of the preparation on the aphids was determined. At a concentration of 300 ppm (based on the content of active compound), the preparations of Example Nos. 1/37, 1/78, 1/136, 1/94, 1/174, 1/14, 1/125, 1/187, 1/17, 1/84, 1/52, 1/82, 1/70, 3/74, 1/54, 1/81, 1/42, 3/161, 1/186 effected a mortality of 90-100% among the aphids. (The active compounds are numbered with the Table/No. in the table).

[2] = system: black bean aphids (Aphis fabae); experiment: Root-systemic activity against black bean aphids on broad bean; details: 30 ppm (content of active compound), 4 ml solution pipetted into the bottle with Vicia faba, after 3 and 6 days storage, read-out: mortality among the aphids by root-systemic action
Protocol: Germinated broad bean seeds (Vicia faba) with radicles were transferred into brown glass bottles filled with tap water. Four milliliters of an aqueous solution of the formulated preparation to be examined were pipetted into the brown glass bottle. The broad bean was subsequently heavily populated with approximately 100 black bean aphids (Aphis fabae). Plants and animals were then stored in a climatized chamber (16 hours of light/day, 25° C., 40-60% relative atmospheric humidity). After 3 and 6 days storage, the root-systemic activity of the preparation on the aphids was determined. At a concentration of 30 ppm (based on the content of active compound), the preparations of Example Nos. 1/53, 1/26, 1/37, 1/78, 1/136, 1/56, 1/94, 1/174, 1/14, 1/187, 1/84, 1/52, 1/82, 1/70, 1/32, 3/74, 1/54, 1/81, 1/42, 3/227, 3/161 effected a mortality of 90-100% among the aphids by root-systemic action.

[3] = system: larvae (L3 stage) of the rice leafhopper species Nilaparvata lugens; experiment: Rice leafhopper test on dipped rice plants; details: 144 h, 300 ppm (content of active compound), rice leaves dipped 5 seconds, after 6 days storage, read-out: mortality among the leafhopper larvae
Protocol: The leaves of 12 rice plants having a stem length of 8 cm were dipped for 5 seconds into an aqueous solution of the formulated preparation to be examined. After the solution had dripped off, the rice plants treated in this manner were placed in a Petri dish and populated with approximately 20 larvae (L3 stage) of the rice leafhopper species Nilaparvata lugens. The Petri dish was closed and stored in a climatized chamber (16 hours of light/day, 25° C., 40-60% relative atmospheric humidity). After 6 days storage, the mortality among the leafhopper larvae was determined. At a concentration of 300 ppm (based on the content of active compound), the preparations of Example Nos. 1/53, 1/26, 1/164, 1/174, 1/82, 1/42 effected a mortality of 90-100%.

Structure (SMILES): CCCSCc1cnc(-c2cnccc2C(F)(F)F)o1 [1/136, 5-n-Propylthiomethyl-2-(4-trifluoromethyl-3-pyridyl)-oxazole]
- mortality at 300 ppm [1]: 90 to 100%
- mortality at 30 ppm [2]: 90 to 100%

Structure (SMILES): O=Cc1cnc(-c2cnccc2C(F)(F)F)o1 [1/164, 5-formyl-2-(4-trifluoromethyl-3-pyridyl)-oxazole]
- mortality at 300 ppm [3]: 90 to 100%
